Source: article PMC3597687 (Nucleic Acids Research, 2013)

Target: T1, LysMSs (S. solfataricus LysM) (Saccharolobus solfataricus, UniProt Q980W9)
T1 sequence (Q980W9 1-142): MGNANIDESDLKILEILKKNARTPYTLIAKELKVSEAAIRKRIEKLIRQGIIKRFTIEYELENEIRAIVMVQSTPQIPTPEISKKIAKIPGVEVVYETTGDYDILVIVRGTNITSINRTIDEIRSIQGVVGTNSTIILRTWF
Assay: EMSA, effect on LysM binding to […]-labelled gltB operator DNA
Conditions: gltB control region 167-bp fragment

Structure (SMILES) | EMSA, effect on LysM binding to 32P-labelled gltB operator DNA (weak effector, mM range) | EMSA, effect on LysM binding to 32P-labelled gltB operator DNA (effector 5 mM, 250 nM LysM)
N=C(N)NOCC[C@H](N)C(=O)O [L-canavanine] | The effect of L-canavanine and L-citrulline was less pronounced | –
NC(=O)NCCC[C@H](N)C(=O)O [L-citrulline] | The effect of L-canavanine and L-citrulline was less pronounced | –
NC(=O)CC[C@H](N)C(=O)O [L-glutamine] | – | arginine, glutamine, isoleucine, leucine, methionine and valine also specifically reduce LysM binding
CC[C@H](C)[C@H](N)C(=O)O [L-isoleucine] | – | arginine, glutamine, isoleucine, leucine, methionine and valine also specifically reduce LysM binding
CC(C)C[C@H](N)C(=O)O [L-leucine] | – | arginine, glutamine, isoleucine, leucine, methionine and valine also specifically reduce LysM binding
CSCC[C@H](N)C(=O)O [L-methionine] | – | arginine, glutamine, isoleucine, leucine, methionine and valine also specifically reduce LysM binding
CC(C)[C@H](N)C(=O)O [L-valine] | – | arginine, glutamine, isoleucine, leucine, methionine and valine also specifically reduce LysM binding
